{"source": "patent US10525079B2", "about": "“Pharmaceutical composition for preventing or treating breast cancer including crystalline polymorph of tetraarsenic hexoxide, and method for producing same” (CHEMAS CO., LTD., priority 2016, dated 2020)", "key": {"metastatic breast cancer": {"test_system": "metastatic breast cancer", "assay": "Clinical test in a patient with metastatic breast cancer (CT images of the lungs)", "type": "in vivo, human", "conditions": "oral 5 mg three times a day (15 mg/day), after 8, 13, 17 and 22 months of administration", "description": "The following clinical test was conducted using the composition of Example 1.\nThe patient received hospital treatments and folk remedies since breast cancer was found in 2006, but the breast cancer was metastasized to the lungs, pleura, bones, and liver. In May 2014, pleural effusion and peritoneal fluid collection were found, and thus the pleural effusion was extracted several times. However, due to a severe difficulty in breathing caused by malignant pleural effusion, the patient breathed through an oxygen respiratory system in an emergency room and hospice medical ward. However, the patient began to develop pallor due to a lack of oxygen, and the patient, having about one week left to live, was orally administered with 5 mg of Example 1 three times a day (15 mg/day).\nCT images of the patient before the administration of Example 1 and after 8, 13, 17 and 22 months of administration of Example 1 are shown in FIG. 6. Before the administration of Example 1, the airway was closed due to metastasis to the right lung and left lung, but after 8, 13, 17, and 22 months of administration, the sizes of the cancers in both of the lungs were decreased as the duration of administration increased."}, "[1]": {"test_system": "human breast cancer cells MCF-7", "assay": "Cell proliferation assay (MTT assay), MCF-7 cells", "type": "cell-based", "description": "(§1) Fetal bovine serum (FBS) and cell culture medium were prepared (Hyclone), and dimethyl sulfoxide (DMSO) and 3-(4,5-dimetyl-thiazol-2yl)-2,5-diphenyltetrazolium bromide (MTT, Amresco LLC, USC) were prepared.\n(§2) As human cancer cell lines, human breast cancer cells MCF-7 and SK-BR-3 were obtained from the Shanghai Cell Bank of Chinese Academy of Sciences. The MCF-7 cells were incubated in Minimum Essential Media (MEM) supplemented with 10% FBS, 100 U/ml penicillin, and 100 μg/ml streptomycin and the SK-BR-3 cells were incubated in Dulbecco's modified Eagle's medium (DMEM) supplemented with 10% FBS, 100 U/ml penicillin, and 100 μg/ml streptomycin in a humidified incubator with 5% CO2 and 95% air. The media were exchanged every three days.\n(§3) The effects of Example 1 and Comparative Examples 1 to 3 on cell proliferation were assessed using MTT assay. MTT assay is based on the ability of viable cells against MTT to produce insoluble dark blue formazan products. After the cells were suspended in the medium by trypsin treatment and collected, the cells were dispensed at a density of 4×10^3 cells/well in a 96-well culture dish (Costar, Cambridge, Mass., USA). […] All the crystals were completely dissolved by standing at room temperature for 15 minutes, and the absorbance was measured using a micro-plate reader at a wavelength of 570 nm (A570 nm).\n(§4) The absorbance value of the control group treated without the sample was calculated as 100, and the absorbance value of the treatment group treated with the sample, compared with that of the control group, was calibrated, and the percentage of inhibition of cell proliferation was calculated according to the following equation. Percentage (%) of inhibition of cell proliferation=((mean absorbance of control group cells−mean absorbance of treatment group cells)/mean absorbance of control group cells)×100\n(§5) All data were expressed as mean±standard error of the mean (mean±SEM). […]"}, "cyclin E1": {"test_system": "cyclin E1", "assay": "RT-PCR mRNA expression of cyclin E1 in MCF-7 cells", "type": "cell-based, human", "conditions": "0-15 μM, 24 hours, with increase in concentration", "description": "(§6) Fetal bovine serum (FBS) and cell culture medium were prepared (Hyclone). RT-PCR Kit and Trizol were obtained from Takara Biotechnology CO., LTD., and Annexin V-FITC was obtained from Shanghai Biyuntian Biological Technology Co., LTD. Primers were designed and synthesized by Beijing Aodingkangsheng Biological Technology Co., LTD.\n(§7) Human breast cancer cells MCF-7, as a human cancer cell line, were obtained from the Shanghai Cell Bank of Chinese Academy of Sciences. MCF-7 cells were incubated in Minimum Essential media (MEM) supplemented with 10% FBS, 100 U/ml penicillin, and 100 μg/m streptomycin in a humidified incubator with 5% CO2 and 95% air. The media were exchanged every three days.\n(§8) In order to investigate the effect of Example 1 on the induction of cell apoptosis, mRNA expression levels of caspase-3, p21, cyclin E1, and cyclin A2, which are genes involved in cell cycle and apoptosis, were examined by RT-PCR. The cells were dispensed at 1×10^5 cells/well in a 6-well culture dish, and incubated for 24 hours. After 24 hours, the cells contained in the MEM containing 10% FBS were treated with Example 1 at 0, 1, 3, 6, 9, 12 or 15 μM, and incubated for 24 hours. After 24 hours, the cells were collected, and then RNA was extracted using Trizol reagent. […]"}, "caspase-3": {"test_system": "caspase-3", "assay": "RT-PCR mRNA expression of caspase-3 in MCF-7 cells", "type": "cell-based, human", "conditions": "0-15 μM, 24 hours, with increase in concentration", "description": "as §6, §7, §8"}, "p21": {"test_system": "p21", "assay": "RT-PCR mRNA expression of p21 in MCF-7 cells", "type": "cell-based, human", "conditions": "0-15 μM, 24 hours, with increase in concentration", "description": "as §6, §7, §8"}, "[2]": {"test_system": "human breast cancer cells MCF-7", "assay": "Induction of cell apoptosis by flow cytometry (Annexin V-FITC / PI)", "type": "cell-based", "conditions": "MCF-7 cells, 0, 1, 3, 6, 9, 12 or 15 μM, 24 hours; with increase in treatment concentration", "description": "as §6, §7\nThe effect of Example 1 on the induction of cell apoptosis was assessed by flow cytometry. The cells were dispensed at 1×10^5 cells/well in a 6-well culture dish, and incubated for 24 hours. After 24 hours, the cells contained in the MEM containing 10% FBS were treated with Example 1 at 0, 1, 3, 6, 9, 12 or 15 μM, and incubated for 24 hours. After 24 hours, the cells were treated using Annexin V-FITC kit to check cell apoptosis, and also treated with propidium iodide (PI) for distinguishment from natural cell death. […] The cells treated with the Annexin V-FITC kit were analyzed for the degree of cell apoptosis by using the BD FACS calibur flow cytometry system. […]"}, "[3]": {"test_system": "human breast cancer cells SK-BR-3", "assay": "Cell proliferation assay (MTT assay), SK-BR-3 cells", "type": "cell-based", "description": "as §1, §2, §3, §4, §5"}, "cyclin A2": {"test_system": "cyclin A2", "assay": "RT-PCR mRNA expression of cyclin A2 in MCF-7 cells", "type": "cell-based, human", "conditions": "0-15 μM, 24 hours, with increase in concentration", "description": "as §6, §7, §8"}, "[4]": {"test_system": "human breast cancer cells, MDA-MB-231", "assay": "Breast cancer metastasis inhibitory effect in nude mice transplanted with MDA-MB-231", "type": "in vivo, babl/c-nu male nude mice", "conditions": "MDA-MB-231 subcutaneous, oral 4.5 mg/kg for 7 days; for percentage of inhibition of cancer cell metastasis: cancer cells spread to the lungs counted; for spreading of the breast cancer cells to the lungs: versus untreated control", "description": "The nude mice were allowed free access to food and water, and were bred in a 12-hr light/12-hr dark cycle for 7 days.\nThe mice were transplanted with human breast cancer cells, MDA-MB-231, through subcutaneous injection, and bred for 7 days. After 7 days, the mice were randomly divided, and then respective mice were orally administered with the compositions of Example 1 and Comparative Example 1 at 4.5 mg/kg for 7 days. Here, the mice treated with nothing after the transplantation of breast cancer cells were used as a control group. After 7 days of administration of the compositions, lung tissues were taken from the mice, and then cancer cells spread to the lungs were counted to compare the degree of inhibition of breast cancer metastasis."}, "[5]": {"conditions": "compared with Comparative Example 2 or 3 (Example 1 and Comparative Example 1 mixed at 4:1 or 1:1)"}}, "data": [{"compound": "tetraarsenic hexoxide [Example 1]", "values": [{"measurement": "sizes of the cancers in both of the lungs (CT images)", "setting": "metastatic breast cancer", "value": "decreased"}, {"measurement": "percentage of inhibition of MCF-7 cell proliferation", "setting": "[1]; [5]", "value": "higher"}, {"measurement": "percentage of inhibition of MCF-7 cell proliferation", "setting": "[1]; incubation 48 hours (FIG. 2A), compared with Comparative Example 1, 0-80 μM", "value": "higher"}, {"measurement": "percentage of inhibition of MCF-7 cell proliferation", "setting": "[1]; incubation 72 hours (FIG. 2B), compared with Comparative Example 1, 0-80 μM", "value": "higher"}, {"measurement": "mRNA expression of cyclin E1", "setting": "cyclin E1", "value": "increased"}, {"measurement": "mRNA expression of caspase-3", "setting": "caspase-3", "value": "increased"}, {"measurement": "mRNA expression of p21", "setting": "p21", "value": "increased"}, {"measurement": "cell apoptosis (annexin V compared with PI)", "setting": "[2]", "value": "increased"}, {"measurement": "percentage of inhibition of SK-BR-3 cell proliferation", "setting": "[3]; [5]", "value": "higher"}, {"measurement": "percentage of inhibition of SK-BR-3 cell proliferation", "setting": "[3]; incubation 48 hours (FIG. 3A), compared with Comparative Example 1, 0-80 μM", "value": "higher"}, {"measurement": "percentage of inhibition of SK-BR-3 cell proliferation", "setting": "[3]; incubation 72 hours (FIG. 3B), compared with Comparative Example 1, 0-80 μM", "value": "higher"}, {"measurement": "mRNA expression of cyclin A2", "setting": "cyclin A2", "value": "decreased"}, {"measurement": "percentage of inhibition of cancer cell metastasis", "setting": "[4]", "value": "≥ 90", "unit": "%"}, {"measurement": "spreading of the breast cancer cells to the lungs", "setting": "[4]", "value": "inhibited"}]}, {"compound": "O1[As]2O[As]3O[As]1O[As](O2)O3", "note": "[Comparative Example 1, tetraarsenic hexoxide]", "values": [{"measurement": "percentage of inhibition of cancer cell metastasis", "setting": "[4]", "value": 50, "unit": "%"}, {"measurement": "spreading of the breast cancer cells to the lungs", "setting": "[4]", "value": "inhibited"}]}]}
